Literature values in patent US20140023695A1, “PATCH PREPARATION” (priority 2011, published 2014).

What was measured:
[1] = system: serotonin 5-HT2 receptor; conditions: as compared to existing antipsychotic, haloperidol
[2] = target: dopamine D2 (Homo sapiens, UniProt P14416); conditions: as compared to existing antipsychotic, haloperidol
Chain of dopamine D2 (P14416 whole entry): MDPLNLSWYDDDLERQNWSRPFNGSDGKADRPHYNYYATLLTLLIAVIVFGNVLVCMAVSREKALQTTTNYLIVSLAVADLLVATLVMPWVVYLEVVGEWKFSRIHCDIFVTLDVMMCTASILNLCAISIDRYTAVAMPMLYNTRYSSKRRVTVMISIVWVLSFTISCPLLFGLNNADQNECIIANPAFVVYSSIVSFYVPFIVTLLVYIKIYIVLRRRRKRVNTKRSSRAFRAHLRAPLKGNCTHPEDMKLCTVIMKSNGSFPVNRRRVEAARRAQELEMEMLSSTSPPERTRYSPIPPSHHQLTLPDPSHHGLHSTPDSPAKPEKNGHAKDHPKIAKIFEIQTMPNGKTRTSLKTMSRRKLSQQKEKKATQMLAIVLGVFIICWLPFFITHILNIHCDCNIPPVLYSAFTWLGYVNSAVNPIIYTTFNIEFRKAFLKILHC

For `CCN1CCN(c2cc(-c3ccc(F)cc3)c3c(n2)CCCCCC3)CC1` [compound A, 2-(4-Ethyl-1-piperazinyl)-4-(4-fluorophenyl)-5,6,7,8,9,10-hexahydrocycloocta[b]pyridine], the “affinity for serotonin 5-HT2 receptor” value [1] is given as “higher affinity” and the “affinity for dopamine D2” value [2] is given as “higher affinity”.
